In paper PMC12487869, “Toward Imaging of the GABA Transporter Type 1 In Vivo: Quantitative Evaluation of 4 Novel PET Radiotracers in Nonhuman Primates” (Journal of Nuclear Medicine, 2025):

Experiment: Plasma free fraction (fp), ultrafiltration method
Format: in vitro ADME, rhesus monkeys (Macaca mulatta)
Settings: measured in triplicate per scan, mean ± SD
Description: The plasma free fraction (fp) for each scan was measured in triplicate using the ultrafiltration method and calculated as the ratio of radioactivity in the filtrate to that in the plasma ([24]).

Free fraction: 13.5 ± 1.4%
Structure (SMILES): Cc1ccccc1C(=CCCN1CCCC(C(=O)O)C1)c1ccccc1[18F] (stereo not shown) [^18F-GATT-44]
